Measurements as given in patent US12029682B2, “Spray ejector mechanisms and devices providing charge isolation and controllable droplet charge, and low dosage volume ophthalmic administration” (EYENOVIA, INC., priority 2012, dated 2024).
Entries after “also recorded” stand apart in the source; their conditions may differ.

How the values were obtained:
glaucomatous beagles [1] = assay: Ocular irritation observations in glaucomatous beagles; assay type: in vivo, beagle dog; settings: 6 μl of 0.03% via spray ejector device, compared to traditional eye drop treatment
Procedure: Active drug delivery begins on study day eight. For five days, IOP and PD measurements are taken at 0900. Immediately after 0900 measurements (time 0), each animal receives 6 μl of generic latanoprost in its assigned eye with the ejector device, followed by a second dosing 3 minutes later of an additional 6 μl (to avoid overloading the conjunctival sac). The contralateral eye receives a clinical dose (one drop) of the same commercially-available topical drug from FDA approved container (positive control). The ejector device is checked for accuracy before and after every use (Table 1). Standard measurements continue throughout each day (at 0:30, 0:45, 1, 2, 7 hrs). Possible endpoints include, but are not limited to, excessive ocular irritation, ocular damage, or other illness and injury. […]
On study days 5-9, IOP and PD measurements were taken at approximately 0900 h (time 0). Immediately after these measurements, each animal received 6 μl of 0.03% bimatoprost in its assigned eye via the spray ejector device. The contralateral eye received a clinical dose (one drop) of the same commercially available topical drug from a traditional eyedropper (positive control). The spray ejector device was checked for accuracy before and after every use and required a 10% delivered dose accuracy in pretreatment. Standard measurements continued throughout each day at 0, 1, 2, 4, and 7 hours. Possible endpoints included, but were not limited to, excessive ocular irritation, ocular damage, and other illness or injury. No statistical crossover was utilized for this study.
Ophthalmic examinations (slit lamp with fluorescein and indirect ophthalmoscopy) were performed on the eyes of each animal prior to Study Day 1. Ocular findings were scored according to the McDonald-Shadduck Score System. Ocular findings were recorded using a standardized data collection sheet. Macroscopic observations were recorded in accordance with the Draize Scale for Scoring Ocular Lesions. Animals were assigned treatments based on basic randomization prior to study day one.
Following a 7 day rest period, the eye choice was reversed. Measurements of IOP, heart rate and pupil diameter (PD) were made at 0:15, 0:30, 0:45, 1, 2, 4, 7, and 18 hours in the primary and crossover study. A veterinary ophthalmologist evaluated each test subject before and after the study for evidence of ocular side effects.
Ophthalmic examinations (slit lamp with fluorescein and indirect ophthalmoscopy) were performed on the eyes of each animal prior to study day 1. Ocular findings were scored according to the McDonald-Shadduck score system and macroscopic observations were recorded in accordance with the Draize scale for scoring ocular lesions. Ocular findings were recorded using a standardized data collection sheet.

glaucomatous beagles [2] = assay: Intraocular pressure (IOP), TonoVet, in glaucomatous beagles; assay type: in vivo, beagle dog

Q: Which results are given for `CCNC(=O)CCC/C=C\C[C@@H]1[C@@H](/C=C/[C@@H](O)CCc2ccccc2)[C@H](O)C[C@@H]1O` [bimatoprost]?
A: irritation (glaucomatous beagles [1]): Markedly less irritation; also recorded: Lack of ocular irritation; duration of the dose vs spray ejector device (glaucomatous beagles [2]; 0.03%, one drop by eyedropper): greater; effectiveness at lowering/controlling IOP vs traditional therapy (glaucomatous beagles [2]; 6 μl of 0.03% once daily morning via spray ejector device vs one drop (26-30 μl)): as effective at lowering IOP and constricting the pupil as traditional therapy; also recorded: as effective at controlling IOP as is the traditional therapy; IOP values vs baseline (glaucomatous beagles [2]; 6 μl of 0.03% via spray ejector device): lower than baseline
